One experiment deals with T1, Gal-4 (Homo sapiens, UniProt P56470).
T1 construct: made in house; host or cells: Escherichia coli Rosetta (DE3) pLysS
T1 sequence (P56470 1-323): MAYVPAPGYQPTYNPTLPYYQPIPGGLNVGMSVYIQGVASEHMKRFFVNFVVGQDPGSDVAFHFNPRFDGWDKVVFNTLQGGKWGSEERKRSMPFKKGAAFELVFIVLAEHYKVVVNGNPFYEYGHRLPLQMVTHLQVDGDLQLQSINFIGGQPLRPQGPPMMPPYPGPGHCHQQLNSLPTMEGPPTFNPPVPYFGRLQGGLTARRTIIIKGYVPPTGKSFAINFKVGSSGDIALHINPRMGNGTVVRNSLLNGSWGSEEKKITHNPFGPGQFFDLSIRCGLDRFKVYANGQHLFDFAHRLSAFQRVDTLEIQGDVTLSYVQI
The experiment can be described thus: competitive ELISA, inhibition of binding of whole Gal-4 to immobilized ASF. Particulars: for IC50: competitive ELISA, Gal-4 2.5 µM, immobilized ASF; for rp, relative potency (IC50 (lactose)/IC50 (ligand)): whole Gal-4. The protocol:
(§1) To design the ELISA method, we first examined the direct binding of the whole Gal-4, Gal-4NL, and Gal-4-CL to standard glycoprotein asialofetuin (ASF, MW 48.4 kDa), which carries up to nine LacNAc epitopes. The ASF was immobilized by hydrophobic interaction in microtiter-plate wells, and the binding of increasing concentrations of Gal-4 proteins was quantified by colorimetric immunodetection using horseradish peroxidase conjugated to an anti-His-tag antibody. The apparent dissociation constants (KD) were calculated from the non-linear regression of the binding curves (Figure 3). […] While for the Gal-4 ELISA measurement we used the concentration of Gal-4 of 2.5 μM, for both subunits, it was 25 μM. […] The Gal-4 proteins were incubated with increasing concentrations of the respective inhibitors, and the concentration-dependent inhibition of the binding to the immobilized ASF was quantified using spectrophotometric colorimetric immunodetection (HRP-conjugated anti-His-tag antibody). The respective half-maximal inhibition constants (IC50) were calculated from the non-linear regression of the sigmoidal curves (Figure 3), and they are shown in Table 2 and Table 3.
(§2) Each incubation step was followed by washing the wells with 3 × 250 µL phosphate-buffered saline (PBS) containing 0.05% Tween® 20. In total, 0.1 µM ASF in PBS (50 µL/well) was coated onto microtiter plates (Nunc Immuno Sorb, ThermoFisher Scientific, Waltham, MA, USA) overnight. After blocking the wells with 2 mg/mL bovine serum albumin (BSA) in PBS buffer (250 µL/well, 1 h), serial dilutions of the inhibitors in PBS buffer containing 2 mM EDTA (EPBS) were incubated with Gal-4 (2.5 µM final dimer concentration) or its subunits, Gal-4CL and Gal-4NL (25 µM final monomer concentration) for 2 h (50 µL/well). The residual bound galectin was labeled with an anti-His-antibody conjugated with horseradish peroxidase (HRP) (Santa Cruz Biotechnology, Heidelberg, Germany; 1:999 dilution in PBS). The colorimetric reaction with TMB One substrate solution (Kem-En-Tec, Taastrup, Denmark; 50 µL/well) was stopped with 3 M hydrochloric acid (HCl) (50 µL/well) and quantified spectrophotometrically at 450 nm (Sunrise; Tecan Group Ltd., Männedorf, Switzerland). The values of half-maximal inhibitory concentrations (IC50) were calculated by non-linear regression (dose–response inhibition-variable slope) of sigmoidal curves from a minimum of three independent experiments using GraphPad Prism 8.4.3 (GraphPad Software, San Diego, CA, USA).
(In an ELISA, binding on a coated surface is turned into a signal by an enzyme label.)

The target of another experiment is T2, Gal-4NL (Homo sapiens, UniProt P56470).
T2 construct: designated as Gal-4NL (aa 1-160), and Gal-4CL (aa 169-323), respectively; made in house; host or cells: E. coli Rosetta (DE3) pLysS
T2 sequence (P56470 1-160): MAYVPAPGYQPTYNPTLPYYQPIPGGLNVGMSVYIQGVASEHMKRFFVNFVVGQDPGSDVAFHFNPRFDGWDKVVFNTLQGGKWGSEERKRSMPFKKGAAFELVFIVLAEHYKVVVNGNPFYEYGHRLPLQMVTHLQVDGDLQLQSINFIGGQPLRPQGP
As to the kind of experiment: competitive ELISA, inhibition of binding of Gal-4NL subunit to immobilized ASF. Particulars: for IC50: competitive ELISA, Gal-4NL 25 µM, immobilized ASF. The protocol:
as §1, §2

Another experiment addresses T3, Gal-4CL (Homo sapiens, UniProt P56470).
T3 construct: designated as Gal-4NL (aa 1-160), and Gal-4CL (aa 169-323), respectively; made in house; host or cells: E. coli Rosetta (DE3) pLysS
T3 sequence (P56470 169-323): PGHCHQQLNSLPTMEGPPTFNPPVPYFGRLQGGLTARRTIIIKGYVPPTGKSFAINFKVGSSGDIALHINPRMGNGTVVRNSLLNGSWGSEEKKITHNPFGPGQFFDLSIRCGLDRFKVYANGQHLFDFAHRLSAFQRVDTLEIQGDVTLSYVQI
The experiment can be described thus: competitive ELISA, inhibition of binding of Gal-4CL subunit to immobilized ASF. Particulars: for IC50: competitive ELISA, Gal-4CL 25 µM, immobilized ASF. The procedure: as §1, §2

What is called IC50 is the concentration that gives 50% inhibition. Low readings indicate greater potency, high ones weaker potency.

`CC(=O)N[C@H]1[C@H](O[C@H]2[C@@H](O)[C@@H](CO)O[C@@H](O[C@H]3[C@H](O)[C@@H](O)C(O)O[C@@H]3CO)[C@@H]2O)O[C@H](CO)[C@@H](O)[C@@H]1O[C@@H]1O[C@H](CO)[C@H](O)[C@H](O)[C@H]1O` (stereo partly shown) [lacto-N-tetraose (3), lacto-N-tetraose]: at Gal-4, the IC50 came to 0.43 ± 0.07 mM and the “rp, relative potency (IC50 (lactose)/IC50 (ligand))” value (from here on “rp, relative potency”) is given as 5.9. Moreover, on Gal-4NL, the “rp Gal-4NL, relative potency (IC50 (lactose)/IC50 (ligand))” value (shortened to “rp Gal-4NL, relative potency”) is 14 and the half-maximal inhibitory concentration (IC50) came out at 0.21 ± 0.03 mM. Also, on Gal-4CL, the “rp Gal-4CL, relative potency (IC50 (lactose)/IC50 (ligand))” value (“rp Gal-4CL, relative potency” below) came out at 18.3 and the IC50 was 0.47 ± 0.9 mM.
Regarding `CC(=O)N[C@H]1C(O)O[C@H](CO)[C@H](O)[C@@H]1O[C@@H]1O[C@H](CO)[C@H](O)[C@H](O)[C@H]1O` (stereo partly drawn) [TF antigen motif (9), β-D-galactopyranosyl-(1→3)-2-acetamido-2-deoxy-D-galactopyranose], at Gal-4, the IC50 was found to be 1.18 ± 0.05 mM and the “rp, relative potency” value came out at 2.1. Further, at Gal-4NL, the “rp Gal-4NL, relative potency” value was 0.8 and the half-inhibitory concentration (IC50) is 3.5 ± 0.2 mM. Besides, at Gal-4CL, the “rp Gal-4CL, relative potency” value is 1.5 and the IC50 came out at 5.8 ± 0.5 mM.
As to `CC(C)(C)OC(=O)NCCNC(=S)N[C@@H]1O[C@H](CO)[C@@H](O[C@@H]2O[C@H](CO)[C@H](O)[C@H](O)[C@H]2O)[C@H](O)[C@H]1O` [lactosyl-tBoc 10], at Gal-4, the IC50 turned out to be 2.5 mM.
As for `CC(=O)N[C@H]1[C@H](O[C@H]2[C@@H](O)[C@@H](CO)O[C@@H](O[C@H]3[C@H](O)[C@@H](O)C(O)O[C@@H]3CO)[C@@H]2O)O[C@H](CO)[C@@H](O[C@@H]2O[C@H](CO)[C@H](O)[C@H](O)[C@H]2O)[C@@H]1O` (stereo partly shown) [lacto-N-neotetraose (4), lacto-N-neotetraose], at Gal-4, the 50% inhibitory concentration (IC50) stood at 0.6 ± 0.1 mM and the “rp, relative potency” value stood at 4.1. Moreover, on Gal-4NL, the “rp Gal-4NL, relative potency” value is 7.3 and the 50% inhibitory concentration (IC50) worked out at 0.4 ± 0.1 mM. For the same molecule, on Gal-4CL, the “rp Gal-4CL, relative potency” value worked out at 10 and the IC50 amounted to 0.8 ± 0.3 mM.
With `OC[C@H]1O[C@@H](O[C@H]2[C@H](O)[C@@H](O)[C@H](O)O[C@@H]2CO)[C@H](O)[C@@H](O)[C@H]1O` [lactose (1), lactose], on Gal-4, the IC50 came to 2.5 ± 0.2 mM and the “rp, relative potency” value is recorded as 1.0. Moreover, at Gal-4NL, the “rp Gal-4NL, relative potency” value came to 1.0 and the concentration for half-maximal inhibition (IC50) was 2.9 ± 0.4 mM. Also, on Gal-4CL, the “rp Gal-4CL, relative potency” value amounted to 1.0 and the IC50 stood at 8.6 ± 1.1 mM.
Regarding `C[C@@H]1O[C@@H](O[C@H]2[C@H](O[C@H]3[C@H](O)[C@@H](O)C(O)O[C@@H]3CO)O[C@H](CO)[C@H](O)[C@@H]2O)[C@@H](O)[C@H](O)[C@@H]1O` (stereo partly shown) [2′-fucosyllactose (2), 2′-fucosyllactose], on Gal-4, the IC50 was found to be 1.5 ± 0.2 mM and the “rp, relative potency” value worked out at 1.7. On Gal-4NL, the “rp Gal-4NL, relative potency” value amounted to 4.8 and the half-maximal inhibitory concentration (IC50) amounted to 0.6 ± 0.06 mM. Also, at Gal-4CL, the “rp Gal-4CL, relative potency” value worked out at 7.8 and the IC50 worked out at 1.1 ± 0.1 mM.

The values are drawn from article PMC10223884, “Oligosaccharide Ligands of Galectin-4 and Its Subunits: Multivalency Scores Highly” (Molecules, 2023).
